For series [1] the following is noted: healthy volunteers, N-demethylation to M2; cited from earlier work.
Series [2] can be described thus: Incubations in human liver S9 + NADPH (same donor pool as HLM). It counts as in vitro ADME. The following applies: S9 + NADPH, savolitinib 1 µM, 1 h (Fig. 6aii).
A short description of series [3]: Incubations in HLM + NADPH from the same donor pool as S9. As to conditions: HLM (same donors as S9) + NADPH, savolitinib 1 µM, 1 h (Fig. 6aii). It counts as in vitro ADME, human. From the text:
Liver S9 (lot 1810001, pool of 50, Xenotech) and HLM (pool of 50, lot 1810003, Xenotech) from the same pool of donors were purchased from Xenotech.

Series [4] can be described thus: Metabolism of savolitinib in lysed hepatocytes + NADPH. It counts as in vitro ADME, human. As to conditions: savolitinib 1 µM, HH lysate + NADPH. On the procedure:
HH in Leibovitz buffer were centrifuged at 11,250 × g for 5 min to pellet the cells. Taking care not to disturb the pellet, all the media was removed using a pipette. Ice-cold water was added and the mixture vortex-mixed to resuspend the cells and stored at −80 °C for 5 min followed by sonication for 10 min to lyse the cells. The resuspended lysate final volume was equivalent to a final cell concentration of 1 million cells/mL (the same concentration used for intact cells experiments) in […] phosphate buffer pH 7.4 and NADPH (final 1 mM). After pre-incubating for 5 min at 37 °C, the reaction (metabolism of savolitinib) in the lysate was initiated by adding savolitinib (final 1 µM). […] Authentic standards (M2 and M4) were spiked into hepatocyte lysate and used to construct standard curves. The acetonitrile/hepatocyte lysate mixtures were centrifuged at 3000 × g for 10 min and 50 µl of the supernatant was mixed with 300 µl of water and 3 µL was injected into the mass spectrometer for analysis by multiple reaction monitoring.

The test system of series [5] is human hepatocytes (HH). Kind of series: Savolitinib metabolite (M2, M4) formation in human hepatocytes, with and without CYP inhibitors. It counts as in vitro ADME. As to conditions: savolitinib 5 µM, 1 h, only peak above this level.
Series [6] in a line: Savolitinib metabolite (M2, M4) formation in NADPH-HLM (with BSA or cytosol where stated). It counts as in vitro ADME, human. More on the design: [M4] / M2 average / M4 average: unit not given here. As to conditions: for M2 average / M4 average: average of duplicate (Suppl. Fig. 1); for [M2] / [M4]: savolitinib 1 µM.
The test system of series [7] is human hepatocytes (HH). Kind of series: Savolitinib metabolite (M2, M4) formation in human hepatocytes, with and without CYP inhibitors. It counts as in vitro ADME. The following applies: savolitinib 1 µM, intact HH. How it is done:
[…]120millioncells/[…] […] Authentic standards (M2 and M4) were spiked into hepatocytes (at 1 million cells/mL) and used to construct standard curves. Control marker reactions (final 1 μM for each compound) specific for CYP1A2 (phenacetin to form paracetamol), CYP2C19 (S-mephenytoin to form 4-OH mephenytoin) and CYP2D6 (dextromethorphan to form dextrorphan) were incubated in the presence and absence of the specific inhibitors to confirm the expected enzyme inhibition. […] After a pre-incubation at 37 °C for 5 min, the reaction was started by adding the test compound. […] After centrifugation at 3000 × g for 10 min, 200 μL of the supernatant was mixed with 400 μL of water before analysis for metabolites.

Series [8] addresses T1, recombinant CYP3A4-POR (Homo sapiens, UniProt P08684).
T1 construct: purchased 456202
Kind of series: Savolitinib incubation with recombinant CYP3A4-POR Supersomes. As to conditions: CYP3A4 (CYP13A4 [sic]), savolitinib 1 µM, 1 h (Fig. 2c). It counts as in vitro ADME. On the procedure: For detailed comparisons between recombinant CYP1A2 and CYP3A4 (Fig. 2B, C), Supersomes were used (CYP1A2, catalogue number 456203, CYP3A4, catalogue number 456202). […] The concentration of savolitinib metabolites M2 and M4 formed were determined from standard curves obtained by spiking the appropriate concentrations of M2 and M4 into recombinant enzymes (in the absence of NADPH) and processing in the same way as the samples.

Series [9] is described as follows: in vitro. As to conditions: human, hepatocytes.
The test system of series [10] is rat hepatocytes. Kind of series: Free fraction in rat hepatocytes as surrogate for HH, equilibrium dialysis. It counts as in vitro ADME. The following applies: fraction unbound, measured or estimated by in silico models of Fuinc.
Series [11] in a line: Intrinsic permeability in Caco-2 cells with efflux inhibited. The following applies: human, Caco-2. For orientation: Passage across Caco-2 layers is used to estimate intestinal permeability.
Series [12] can be described thus: in vitro. The following applies: human, microsomes, pH 7.4. On the procedure:
(§1) Calculation and scaling of CLint,u was done using the equation below and 45 mg of microsomal protein per gram of liver. HLMCLint,u=ln2/x1/t1/2(min)xmLincubation/mgmicrosomalproteinx45mgmicrosomalprotein/gliverx21gliver/kg/Fuinc

The nature of series [13]: Free fraction in HLM incubation, equilibrium dialysis. It counts as in vitro ADME, human. As to conditions: fraction unbound, measured or estimated by in silico models of Fuinc.
A short description of series [14]: in vitro. As to conditions: human, microsomes, pH 7.4, NADPH_HLM_scaled_CLint,u. How it is done:
as §1

Series [15] is described as follows: physchem. The following applies: pH 7.4.
[16] abbreviates: 60min, cytosol 0 mg/mL, single measurements (Suppl. Fig. 1).
Where [17] appears, read: 60min, cytosol 4 mg/mL, single measurements (Suppl. Fig. 1).
[18] abbreviates: 60min, cytosol 10 mg/mL, single measurements (Suppl. Fig. 1).

Several values for one entry are separate records, joined by “and”; a condition that tells them apart may be missing. Equal values may be shown once.

T1 sequence (P08684 whole entry): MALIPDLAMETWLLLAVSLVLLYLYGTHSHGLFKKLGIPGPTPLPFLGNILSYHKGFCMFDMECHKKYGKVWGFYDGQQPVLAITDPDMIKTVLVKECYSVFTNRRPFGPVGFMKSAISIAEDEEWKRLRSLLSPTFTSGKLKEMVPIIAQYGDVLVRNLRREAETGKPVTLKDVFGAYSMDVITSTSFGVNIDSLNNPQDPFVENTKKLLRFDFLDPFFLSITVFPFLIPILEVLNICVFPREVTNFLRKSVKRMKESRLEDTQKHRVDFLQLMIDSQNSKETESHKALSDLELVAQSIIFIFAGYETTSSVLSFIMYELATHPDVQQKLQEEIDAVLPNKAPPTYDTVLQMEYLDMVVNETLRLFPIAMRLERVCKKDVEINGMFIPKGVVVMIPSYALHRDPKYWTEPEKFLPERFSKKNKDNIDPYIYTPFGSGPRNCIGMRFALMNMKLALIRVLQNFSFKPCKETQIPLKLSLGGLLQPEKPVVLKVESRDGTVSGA

Consider `C[C@@H](c1ccc2nccn2c1)n1nnc2ncc(-c3cn[nH]c3)nc21` [Compound M2], for which the “metabolite, share of the dose” value in series [1] was 60 % of the dose. For the same molecule, the “[M2]” value in series [2] is 6.15 nM and 6.3 nM and 4.1 nM; in [3] it was 12.05 nM and 12.7 nM and 9.9 nM; in [4] (0 min (Fig. 6cii)) it was 0.25 nM and 0.2 nM; in [4] (5 min (Fig. 6cii)), 1.7 nM and 2.55 nM and 1.8 nM; in series [4] (10 min (Fig. 6cii)) it was 3.5 nM and 5.15 nM and 3.8 nM; in [4] (20 min (Fig. 6cii)), 6.7 nM and 10.4 nM and 7.3 nM. Moreover, the “[M2]” value in series [4] (40 min (Fig. 6cii)) was 11.35 nM and 17.1 nM and 12.4 nM; in [4] (60 min (Fig. 6cii)) it was 15.15 nM and 22.05 nM and 17 nM; in series [6] (1 h (Fig. 2e)) it was 9.4 nM and 16.7 nM and 13.4 nM; in [6] (setting [16]), 13.1 and 12.8 and 12.6 and 12.9 and 11.7; in series [6] (setting [17]), 10.4 and 10.1 and 10.6 and 10.3 and 10.9 and 11.5; in series [6] (setting [18]), 7.5 and 7.4 and 8 and 7.8 and 8.5 and 9.3. The “[M2]” value in series [7] (5 min (Fig. 2a, 6cii)) is 1.4 nM and 2.2 nM and 2.25 nM; in series [7] (10 min (Fig. 2a, 6cii)) it was 2.85 nM and 3.9 nM and 4.1 nM; in series [7] (20 min (Fig. 2a, 6cii)) it was 6.15 nM and 6.85 nM and 7.4 nM; in series [7] (40 min (Fig. 2a, 6cii)), 12.1 nM and 12.5 nM and 13.35 nM; in series [7] (60 min (Fig. 2a, 6cii)) it was 15.75 nM and 16.75 nM and 16.5 nM. The “metabolite peak by UV detection” value in series [5] was “greater than 1%”. The M2 average was 12.95 and 12.75 and 12.25 in [6] (60min, cytosol 0 mg/mL); 10.25 and 10.45 and 11.2 in [6] (60min, cytosol 4 mg/mL); 7.45 and 7.9 and 8.9 in series [6] (60min, cytosol 10 mg/mL).

For the molecule `C[C@@H](c1ccc(N)nc1)n1nnc2ncc(-c3cnn(C)c3)nc21` [Compound M4], the “[M4] nM formed by recombinant CYPs” value in [8] was 208.8 nM and 197.55 nM and 216.7 nM. Besides, the “[M4]” value was 59.25 nM and 71.3 nM and 48.9 nM in [3]; 2.8 nM and 3 nM and 2.75 nM in [4] (0 min (Fig. 6cii)); 3.1 nM and 3.9 nM and 3.3 nM in [4] (5 min (Fig. 6cii)); 4.2 nM and 5.25 nM and 4 nM in series [4] (10 min (Fig. 6cii)); 4.6 nM and 6.95 nM and 4.95 nM in [4] (20 min (Fig. 6cii)); 6.1 nM and 9.2 nM and 6.8 nM in series [4] (40 min (Fig. 6cii)). Besides, the “[M4]” value in series [4] (60 min (Fig. 6cii)) was 7.5 nM and 10.55 nM and 8.1 nM; in series [6] (setting [16]), 45.1 and 46.3 and 50.7 and 50.2 and 47.8 and 48.7; in [6] (setting [17]), 17.9 and 16.8 and 19.5 and 20.2 and 21.9 and 20.8; in series [6] (setting [18]), 7.5 and 7.3 and 8.2 and 10.2 and 9.9. Besides, the M4 average is 45.7 and 50.45 and 48.25 in series [6] (60min, cytosol 0 mg/mL); 17.35 and 19.85 and 21.35 in series [6] (60min, cytosol 4 mg/mL); 7.4 and 8.2 and 10.05 in [6] (60min, cytosol 10 mg/mL).

What is called hepatocyte CLint is the rate of metabolic loss divided by the concentration. Broadly, the CLint scaled is the rate of metabolic loss divided by the concentration. A word on the Papp: it is the rate of passage across a membrane or cell layer, normalised by area and donor concentration. As usually defined, the logD is lipophilicity at a set pH, counting ionised and neutral species. Turning to `CC(=O)CC(c1ccccc1)c1c(O)c2ccccc2oc1=O` (centres unmarked) [Warfarin], the intrinsic clearance (hepatocyte CLint) at 1 µM in series [9] (both) was 2.69 µL/min/1e6 cells. The CLint scaled at 1 µM in [9] (HH_scaled_CLint,u) came out at 8.57 mL/min/kg; in series [12], 2.83 mL/min/kg; in series [14] it was 4.16 mL/min/kg. Also, the fu_ratHH in series [10] was 0.791. The same molecule had an apparent permeability coefficient (Papp) at 2 h, 10 µM in [11] of 60.7 ×10⁻⁶ cm/s. Moreover, in series [13], the fu_HLM is on record as 1. The logD in series [15] worked out at 0.902.

(Values after PMC12592420, “A mismatch in enzyme-redox partnerships underlies divergent cytochrome P450 activities between human hepatocytes and microsomes” (Communications Biology, 2025).)
